The target in data set [1] is T1, GPR40 (Homo sapiens, UniProt O14842).
T1 construct: host or cells: HEK293 (ChemiBrite cell line)
Nature of the data set: Intracellular Ca2+ flux fluorescent assay (FLIPR). Type of data set: cell-based. Here is the method: To determine the EC50 of the compounds on intracellular Ca^2+ flux using a fluorescent assay (FLIPR)
GPR40 expressing stable cells were seeded at 25,000 numbers/well. 50 μL/well of assay buffer (20 mM HEPES+1×HBSS) was added to the cells and the cells were cultured for 20 min at 37° C. Cells were loaded with 50 μL/well of Calcium 5 dye and cultured for 45 min at 37° C.
The cells were challenged with compounds at a top concentration of 1000 nM (1:3 step down dilution—10 points). Intracellular Calcium flux was assessed by use of Screen Works 3.1 tool and statistical analysis was carried using Graph Pad Prism 4
In general terms: Calcium assays in cells follow changes in intracellular calcium, usually with a dye or a luminescent sensor.

The target in data set [2] is T1, GPR40. In words: Promoter-luciferase assay to measure GPR40 activation (HEK293 cells stably transfected with GPR40 cDNA). Format: cell-based. The conditions noted are these: HEK293 cells stably transfected with GPR40, 5xSRE-luciferase. How it is done:
GPR40 activation was measured in HEK293 cells stably transfected with GPR40 cDNA (ChemiBrite cell lines from Millipore, US). These cells were transiently transfected with a pGL2 (Promega Inc.) plasmid having a 5×SRE sequence, cloned 5′ of a luciferase gene along with a β-galactosidase plasmid as normalizing control. Briefly, 35000 cells/well were seeded in a 96 well plates. After overnight incubation at 37° C., the cells were washed with PBS and transfected with the 5×-SRE-Luciferase plasmid and the β-galactosidase plasmid. 6 h post transfection, media was removed and replaced with fresh media with different concentration of drugs and incubated for 16 more hours. The cells were then lysed in 50 μL of Glo-Lysis buffer (Promega) for 30 min at room temperature. The cells were then centrifuged and lysates were collected. Luciferase activity was measured by adding 100 μL of luciferase substrate (Promega) in 20 μL of lysate and measuring the luminescence in luminometer. The […] activity was also measured by adding 20 μL of lysates with 20 μL of β-galactosidase buffer (Promega) and monitoring the absorbance at 415 nm. Luciferase values were divided by β-galactosidase values to normalize transfection efficiency (Table 2)

Data set [3] relates to n-STZ rat model. Nature of the data set: Oral glucose tolerance test in n-STZ rat model. Format: in vivo, Wistar rat. The conditions noted are these: for % improvement in AUC glucose vs. control: n-STZ rat; for ED50: po, n-STZ rat OGTT model. How it is done: Primary Screening Protocol for GRP40 agonist test compounds in n-STZ rat model
Wistar rat pups of 1-2 day old injected with Streptozotocin (STZ) at 120 mg/kg dose by intraperitoneal route. All pups allowed grow normally and at the age of 12-14 week they were screen for glucose intolerance by performing the oral glucose tolerance test by tail clip method using glucometer. Animals showing glucose intolerance were selected for evaluation of test compound. Three to seven days of rest period animals were kept on overnight fasting. […] Animals were administered with test compound and then 15-60 min after the compound administration “O” min blood glucose levels were measured and immediately glucose load at 2 g/kg was administered orally. Blood glucose levels were measured at 30, 60 and 120 min after glucose load using by tail clip method using glucometer. Blood was also collected at 10 min after glucose load for measurement of insulin levels. Glucose area under the curve (AUC) was calculated using Graph Pad Prism software and % reduction in AUC-glucose vs vehicle treated control was calculated (Table 3).

A short description of data set [4]: Pharmacokinetics in rats. Particulars: rat, in vivo; for MRT: read-out: Mean residence time; for Vd: read-out: Vss; for bioavailability: po 3 mg/Kg vs iv 1 mg/Kg.
[5] abbreviates: iv 1 mg/Kg, read-out: T1/2, iv (converted).
[6] abbreviates: po 3 mg/Kg, read-out: T1/2, po (converted).
Setting [7] is: GPR40 expressing stable cells, intracellular Ca2+ flux, read-out: EC50 in FLIPR assay.
Where [8] appears, read: read-out: EC50 in Luciferase assay.

Read-outs that look alike come from different tables or passages of the source.

T1 sequence (O14842 whole entry, species assumed): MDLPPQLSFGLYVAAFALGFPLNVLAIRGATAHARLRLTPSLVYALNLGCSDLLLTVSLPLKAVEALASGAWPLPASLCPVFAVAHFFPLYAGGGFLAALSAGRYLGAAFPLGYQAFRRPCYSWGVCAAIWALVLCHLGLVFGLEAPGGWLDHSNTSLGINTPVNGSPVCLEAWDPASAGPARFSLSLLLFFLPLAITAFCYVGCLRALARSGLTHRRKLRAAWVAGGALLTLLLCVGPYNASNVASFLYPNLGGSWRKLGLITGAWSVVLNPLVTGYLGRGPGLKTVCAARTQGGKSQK

As for `CC#C[C@@H](CC(=O)[O][Ca][O]C(=O)C[C@H](C#CC)c1ccc(OCc2cccc(CN3CCc4sc(C)cc4C3)c2)cc1)c1ccc(OCc2cccc(CN3CCc4sc(C)cc4C3)c2)cc1` [Compound 16, calcium(S)-3-(4-((3-((2-methyl-6,7-dihydrothieno[3,2-c]pyridin-5(4H)-yl)methyl)benzyl)oxy)phenyl)hex-4-ynoate(S)-3-(4-((3-((2-methyl-6,7-dihydrothieno[3,2-c]pyridin-5(4H)-yl)methyl)benzyl)oxy)phenyl)hex-4-ynoate], the midpoint of the response in data set [1], the EC50, lay at 2.72 nM. Also, in data set [2] (EC50 in Luciferase assay), the response was half-maximal at 4.6 nM (EC50). Besides, in data set [3] (1 mg/Kg per oral), the “% improvement in AUC glucose vs. control” value amounted to 44.6%. Besides, the “% improvement in AUC glucose vs. control” value in data set [3] (10 mg/Kg per oral) was found to be 59.6%. In data set [3], it took a dose of 0.05 mg/kg to reach the 50% effect level (ED50). In data set [4] (iv 1 mg/Kg), the AUC(0-t) is 3180 ± 400 ng·h/mL, the C0 was 5020 ± 370 ng/mL, the clearance stood at 5.26 ± 0.65 mL/min/kg and the MRT worked out at 1.09 ± 0.07 h. The Vd in data set [4] (iv 1 mg/Kg) amounted to 0.34 ± 0.03 L/kg. In addition, in data set [4] (setting [5]), the half-life is 1.45 ± 0.12 h. In addition, in data set [4] (po 3 mg/Kg), the Cmax is 5920 ± 2100 ng/mL, the time to peak (Tmax) was found to be 0.25 h and the MRT turned out to be 2.19 ± 0.31 h. In addition, the bioavailability in data set [4] came out at 83%. The half-life in data set [4] (setting [6]) is 1.77 ± 0.42 h.
Consider `CC#C[C@@H](CC(=O)O)c1ccc(OCc2cccc(CN3CCc4sc(C)cc4C3)c2)cc1` [Compound 7, (S)-3-(4-((3-((2-methyl-6,7-dihydrothieno[3,2-c]pyridin-5(4H)-yl)methyl)benzyl)oxy)phenyl)hex-4-ynoic acid], for which the values for the 50% effective concentration (EC50) in data set [1] (setting [7]) and in data set [2] (setting [8]) were 1.8 nM and 1.49 nM, respectively. Moreover, the “% improvement in AUC glucose vs. control” value is listed as 30.4% in data set [3] (0.1 mg/Kg per oral), 46.0% in data set [3] (1 mg/Kg per oral) and 57.0% in data set [3] (10 mg/Kg per oral).
On to `CC#C[C@@H](CC(=O)[O][Ca][O]C(=O)C[C@H](C#CC)c1ccc(OCc2cccc(CN3CCc4nc(Cl)sc4C3)c2)cc1)c1ccc(OCc2cccc(CN3CCc4nc(Cl)sc4C3)c2)cc1` [Compound 60, Calcium (S)-3-(4-((3-((2-chloro-6,7-dihydrothiazolo[5,4-c]pyridin-5(4H)-yl)methyl)benzyl)oxy)phenyl)hex-4-ynoate], for which the concentration for a half-maximal effect (EC50) in data set [2] (EC50 in Luciferase assay) is 5.6 nM. In data set [3] (1 mg/Kg per oral), the “% improvement in AUC glucose vs. control” value was found to be 44%. In data set [3] (10 mg/Kg per oral), the “% improvement in AUC glucose vs. control” value stood at 47%. In addition, in data set [3], the ED50 was 0.04 mg/kg. Also, in data set [4] (iv 1 mg/Kg), the exposure AUC(0-t) was 18600 ± 2170 ng·h/mL, the C0 amounted to 3390 ± 330 ng/mL, the clearance is 0.89 ± 0.1 mL/min/kg and the MRT came out at 6.28 ± 0.77 h. Besides, in data set [4] (iv 1 mg/Kg), the Vd was 0.33 ± 0.01 L/kg. For the same molecule, the half-life in data set [4] (setting [5]) was 5.57 ± 1.46 h. In addition, in data set [4] (po 3 mg/Kg), the Cmax stood at 7770 ± 1940 ng/mL, the Tmax turned out to be 1 h and the MRT stood at 5.74 ± 0.1 h. The same molecule gave a bioavailability in data set [4] of 93%. In data set [4] (setting [6]), the half-life is 5.45 ± 0.79 h.
On to `CC#C[C@@H](CC(=O)O)c1ccc(OCc2cccc(CN3CCc4sccc4C3)c2)cc1` [Compound 1, (S)-3-(4-((3-((6,7-dihydrothieno[3,2-c]pyridin-5(4H)yl)methyl)benzyl)oxy)phenyl)hex-4-ynoic acid], for which the EC50 in data set [1] (setting [7]) amounted to 117 nM; in data set [2] (setting [8]) it was 7.5 nM.
As to `CC#C[C@@H](CC(=O)[O][Ca][O]C(=O)C[C@H](C#CC)c1ccc(OCc2cccc(CN3CCc4nc(C)sc4C3)c2)cc1)c1ccc(OCc2cccc(CN3CCc4nc(C)sc4C3)c2)cc1` [Compound 17, calcium (S)-3-(4-((3-((2-methyl-6,7-dihydrothiazolo[4,5-c]pyridin-5(4H)-yl)methyl)benzyl)oxy)phenyl)hex-4-ynoate(S)-3-(4-((3-((2-methyl-6,7-dihydrothiazolo[4,5-c]pyridin-5(4H)-yl)methyl)benzyl)oxy)phenyl)hex-4-ynoate], the concentration for a half-maximal effect (EC50) came out at 10.2 nM in data set [1] and 4.7 nM in data set [2] (EC50 in Luciferase assay). For the same molecule, the “% improvement in AUC glucose vs. control” value was found to be 37.1% in data set [3] (1 mg/Kg per oral) and 44.7% in data set [3] (10 mg/Kg per oral).
Turning to `CC#C[C@@H](CC(=O)O)c1ccc(OCc2cccc(CN3CCc4sc(Br)cc4C3)c2)cc1` [Compound 19, Calcium (S)-3-(4-((3-((2-bromo-6,7-dihydrothieno[3,2-c]pyridin-5(4H)-yl)methyl)benzyl)oxy)phenyl)hex-4-ynoate], the 50% effective concentration (EC50) in data set [1] (setting [7]) was 2.32 nM.
Consider `CC#C[C@@H](CC(=O)O)c1ccc(OCc2cccc(CN3Cc4cnn(C)c4C3)c2)cc1` [Compound 22, (S)-3-(4-((3-((1-Methylpyrrolo[3,4-c]pyrazol-5(1H,4H,6H)-yl)methyl)benzyl)oxy)phenyl)hex-4-ynoic acid], for which the 50% effective concentration (EC50) in data set [1] (setting [7]) amounted to 36.3 nM; in data set [2] (setting [8]), 31.5 nM.

A word on the EC50: it is the concentration giving half of the maximal effect. What is called ED50 is the midpoint of the dose-response relation. A lower ED50 goes with an effect at a small dose. Usually AUC(0-t) stands for the area under the concentration-time curve up to a stated or last time point. High values mean more exposure, low ones less exposure. What is called clearance is the volume of plasma or blood freed of the substance per unit of time. The low end stands for inefficient removal, the high end for efficient removal. A word on the Cmax: it is the peak of the concentration-time curve. In general, Tmax refers to the time from dosing to the highest level. By bioavailability is commonly meant dose-corrected exposure relative to a reference, in per cent.

The values are drawn from patent US10011609B2, “Heterocyclic compounds” (CADILA HEALTHCARE LIMITED, priority 2013, dated 2018).
